The record followed here is patent US11401279B2, “Pyrido[3,2-d]pyrimidine compounds as immunomodulators” (Incyte Corporation, priority 2019, dated 2022).

One series deals with PD-1/PD-L1 (Homo sapiens (Human), UniProt Q9NZQ7). Kind of series: Homogeneous Time-Resolved Fluorescence (HTRF) PD-1/PD-L1 binding assay. To be noted: recombinant human PD-1 and PD-L1. The procedure: The assays were conducted in a standard black 384-well polystyrene plate with a final volume of 20 μL. Inhibitors were first serially diluted in DMSO and then added to the plate wells before the addition of other reaction components. The final concentration of DMSO in the assay was 1%. The assays were carried out at 25° C. in the PBS buffer (pH 7.4) with 0.05% Tween-20 and 0.1% BSA. Recombinant human PD-L1 protein (19-238) with a His-tag at the C-terminus was purchased from AcroBiosystems (PD1-H5229). Recombinant human PD-1 protein (25-167) with Fc tag at the C-terminus was also purchased from AcroBiosystems (PD1-H5257). PD-L1 and PD-1 proteins were diluted in the assay buffer and 10 μL was added to the plate well. Plates were centrifuged and proteins were preincubated with inhibitors for 40 minutes. The incubation was followed by the addition of 10 μL of HTRF detection buffer supplemented with Europium cryptate-labeled anti-human IgG (PerkinElmer-AD0212) specific for Fc and anti-His antibody conjugated to SureLight®-Allophycocyanin (APC, PerkinElmer-AD0059H). After centrifugation, the plate was incubated at 25° C. for 60 min. before reading on a PHERAstar FS plate reader (665 nm/620 nm ratio). Final concentrations in the assay were—3 nM PD1, 10 nM PD-L1, 1 nM europium anti-human IgG and 20 nM anti-His-Allophycocyanin. IC50 determination was performed by fitting the curve of percent control activity versus the log of the inhibitor concentration using the GraphPad Prism 5.0 software.
Chain of PD-1/PD-L1 (Q9NZQ7 19-238): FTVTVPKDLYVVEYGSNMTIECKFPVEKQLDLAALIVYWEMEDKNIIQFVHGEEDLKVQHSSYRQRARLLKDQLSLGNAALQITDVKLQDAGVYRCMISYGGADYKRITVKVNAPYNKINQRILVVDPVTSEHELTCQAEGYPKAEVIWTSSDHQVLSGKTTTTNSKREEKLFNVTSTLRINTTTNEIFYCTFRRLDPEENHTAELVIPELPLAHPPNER

Series [1] concerns U2OS/PD-L1 cells and Jurkat-PD-1-SHP cells. The series is described as follows: Src homology region 2 domain-containing phosphatase (SHP) assay. Conditions: Homo sapiens, U2OS; PathHunter chemiluminescence, 2 hours. In kind it is cell-based. The procedure: U2OS/PD-L1 cells (DiscoveRx Corporation) were maintained in McCoy's 5A medium with addition of 10% FBS, 0.25 μg/mL Puromycin. After removing the culture media, the cell medium was replaced with assay medium (RPMI1640 medium with 1% FBS). The U2OS/PD-L1 cells were then added in 384-well black clear bottom assay plate (CELLCOAT® Tissue Culture Plates, Greiner Bio-One) at 5000 cells per well in 20 μL assay medium. Test compounds were prepared by serial dilution in DMSO and 125 nL compound were first transferred to the 384 REMP plate well (Thermofisher) by ECHO liquid handler (Labcyte) followed with addition of 27.5 μL assay medium. 5 µL/well compounds in the assay medium were transferred to the cell plate with 0.05% DMSO in the final assay at 0.25 μM. Jurkat-PD-1-SHP cells (DiscoveRx Corporation) were cultured in RPMI1640 medium supplemented with 10% FBS, 250 μg/mL Hygromycin B, 500 μg/mL G418. After the replacement of culture media with assay medium, 5,000 Jurkat-PD-1-SHP cells in 20 μL were dispensed into each well. The assay plate was incubated at 37° C., 5% CO2 for 2 hours before 2.5 μL PathHunter reagent 1 (DiscoveRx Corporation) were added to each well. The assay plate was shaken for 1 min at 350 rpm in the dark followed with addition of 10 μL PathHunter reagent 2 (DiscoveRx Corporation). Chemiluminescent signal was recorded with TopCount reader (Perkin Elmer) after incubation at room temperature for 1 hour. Wells with DMSO were served as the positive controls and wells containing no cells were used as negative controls. IC50 determination was performed by fitting the curve of percentage of control activity versus the log of the compound concentration using the GraphPad Prism 6.0 software.

Series [2] deals with PD-L1 aAPC/CHO-K1 cells and Jurkat-PD-1-NFAT effector cells. Kind of series: Nuclear factor of activated T-cells (NFAT) assay. Conditions: Cricetulus griseus, CHO-K1; luminescence, 24 hours. In kind it is cell-based. As for the experimental part: PD-L1 aAPC/CHO-Klcells (Promega) were maintained in F-12 medium with addition of 10% FBS, 200 μg/mL Hygromycin B, 250 μg/mL Geneticin (G418). Jurkat-PD-1-NFAT effector cells (Promega) were cultured in RPMI 1640 medium supplemented with 10% FBS, 100 μg/mL Hygromycin B, 500 μg/mL G418. The culture media of PD-L1 aAPC/CHO-K1 cells were first replaced with assay medium (RPMI1640 medium with 1% FBS). The PD-L1 aAPC/CHO-Klcells were then added in a white 384-well white clear bottom assay plate (CELLCOAT® Tissue Culture Plates, Greiner Bio-One) at 8000 per well in 10 μL assay medium. Test compounds were prepared by serial dilution in DMSO and 0.8 μL test compounds in DMSO were first transferred to the 384 REMP plate well (Thermofisher) by PlateMate Plus (Thermofisher) followed with addition of 50 μL plating medium. 5 μL compounds in the assay medium were transferred to the cells with 0.4% DMSO in the final assay at 2 μM. After removing the culture media, 10,000 Jurkat-PD-1-NFAT effector cells in 5 μL assay medium was dispensed into each well. The assay plate was incubated at 37° C., 5% CO2 for 24 hours. After the assay plate was equilibrated to room temp for 15 minutes, 20 μL/well of Bio-Glo™ reagent (Promega) were added. After 8 minutes incubation at room temperature, luminescence was read at with Pherastar microplate reader (BMG Labtech). The fold of induction (FOI) was calculated based on the ratio of luminescence normalized to the DMSO wells within each assay plate. The maximum percentage of induction was reported based on the ratio between the highest FOI of each compound and the maximum FOI of control compound within each assay plate. Wells with DMSO were served as the negative controls and wells containing control compound with the highest FOI were used as positive controls. EC50 determination was performed by fitting the curve of percent control activity versus the log of the compound concentration using the GraphPad Prism 6.0 software.

The target of the next series is PD-L1 (Homo sapiens (Human), UniProt Q9NZQ7). The series is described as follows: PD-L1 whole blood internalization assay. It counts as cell-based. To be noted: PD-L1 internalization in human whole blood, CD14+ cells, interferon γ, 24 hour. The procedure: To determine PD-L1 internalization in human whole blood, normal human blood (Biological Specialty Corp, Colmar. Pa.) was incubated in the presence or absence of a concentration range of test compounds and 1 ng/mL human interferon γ (R&D Systems Inc. Minn. […] Blood was then stained with PD-L1 (MIH1, eBioscience; or BD Biosciences San Jose, Calif.), CD14 (Life Technologies, Carlsbad, Calif.) for 30 minutes in the dark at room temperature. Whole Blood/red cells were lysed/fixed (lysis buffer BD Biosciences) for 5 minutes at 37° C. in the dark and then centrifuged at 1600 RPM for 5 minutes. Cells were resuspended in Stain Buffer (BD Bioscience, San Jose, Calif.) and transferred into 96 well round bottom plates (Corning). Cells were gated on CD14+(BD Biosciences) and PD-L1 expression determined by mean fluorescence intensity (MFI) (BD LSRFortessa™ X-20). IC50 determination was performed by fitting the curve of compound percent inhibition versus the log of the compound concentration using the GraphPad Prism 7.0 software.
Chain of PD-L1 (Q9NZQ7 19-290): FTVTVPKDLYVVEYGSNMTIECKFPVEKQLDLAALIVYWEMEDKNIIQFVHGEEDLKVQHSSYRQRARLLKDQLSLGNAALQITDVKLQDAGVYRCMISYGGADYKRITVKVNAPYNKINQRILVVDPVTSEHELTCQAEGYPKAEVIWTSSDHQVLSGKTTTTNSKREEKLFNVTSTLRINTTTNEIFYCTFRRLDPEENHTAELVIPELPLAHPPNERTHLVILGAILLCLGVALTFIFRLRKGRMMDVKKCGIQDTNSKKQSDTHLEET

Series [3] is described as follows: In vivo pharmacokinetics in rats. Set-up: species or system Sprague Dawley rats. Conditions: rat, cassette dosing; for clearance / half-life / Vd / Cmax / AUC(0-inf): male, Sprague-Dawley, plasma; for clearance / half-life / Vd: 1.0 mg/kg IV; for Vd: read-out: Vss; for Cmax / AUC(0-inf) / F: 3.0 mg/kg PO; for AUC(0-inf): read-out: AUC0-inf. As for the experimental part: For in vivo pharmacokinetic experiments, test compounds were administered to male Sprague Dawley rats or male and female Cynomolgus monkeys intravenously or via oral gavage. For intravenous (IV) dosing, test compounds were dosed at 0.5 to 1 mg/kg using a formulation of 10% dimethylacetamide (DMAC) in acidified saline via IV bolus for rat and 5 min or 10 min IV infusion for monkey. For oral (PO) dosing, test compounds were dosed at 1.0 to 3.0 mg/kg using 5% DMAC in 0.5% methylcellulose in citrate buffer (pH 3.5). Blood samples were collected at predose and various time points up to 24 hours postdose. All blood samples were collected using EDTA as the anticoagulant and centrifuged to obtain plasma samples. The plasma concentrations of test compounds were determined by LC-MS methods. The measured plasma concentrations were used to calculate PK parameters by standard noncompartmental methods using Phoenix® WinNonlin software program (version 7.0, Pharsight Corporation).
In rats and monkeys, cassette dosing of test compounds were conducted to obtain preliminary PK parameters.

The structures appear in SMILES notation. pEC50, pIC50: −log10 of the molar value.

Usually pIC50 stands for the IC50 on a negative log10 scale, so that one unit is a factor of ten. Broadly, the pEC50 is the negative decadic logarithm of the EC50, by convention in mol/L. Higher therefore signals a low EC50. In the case of `Cc1c(NC(=O)c2nc3c(n2C)CCN(CCC24CCC(C(=O)O)(CC2)C4)C3)cccc1-c1cccc(Nc2nc(C(F)F)nc3cc(CN4CC[C@](C)(O)C4)cnc23)c1C` [Example 16, (S)-4-(2-(2-((3′-((2-(difluoromethyl)-7-((3-hydroxy-3-methylpyrrolidin-1-yl)methyl)pyrido[3,2-d]pyrimidin-4-yl)amino)-2,2′-dimethyl-[1,1′-biphenyl]-3-yl)carbamoyl)-1-methyl-1,4,6,7-tetrahydro-5H-imidazo[4,5-c]pyridin-5-yl)ethyl)bicyclo[2.2.1]heptane-1-carboxylic Acid], the pIC50 was 8.77 on PD-1/PD-L1, 8.62 in series [1] and 7.28 against PD-L1. The pEC50 in series [2] was 8.22.
A word on the clearance: it is the rate of elimination divided by the concentration. A higher clearance goes with efficient removal. One may read the half-life as how long it takes for the measured level to halve. By Cmax is commonly meant the maximum level reached in the sampled fluid or tissue. On to `CN1CCc2c(nc(C(=O)Nc3cccc(-c4cccc(NC(=O)c5nc6c(n5C)CCN(CC57CCC(C(=O)O)(CC5)C7)C6)c4Cl)c3Cl)n2C)C1` [Example 84], for which, on PD-1/PD-L1, the pIC50 is 8.08. Moreover, the pIC50 in series [1] was 8.16. In series [2], the pEC50 is 7.33. Also, the pIC50 against PD-L1 was 7.01. In addition, in series [3], the clearance is 16.5 mL/min/kg, the half-life was 3.47 h, the Vd stood at 2.45 L/kg and the Cmax turned out to be 234 nM. Further, in series [3], the AUC(0-inf) stood at 1.2 µM·h and the F was 28%.
`Cc1c(NC(=O)c2nc3c(n2C)CCN(CC24CCC(C(=O)O)(CC2)C4)C3)cccc1-c1cccc(NC(=O)c2nc3c(n2C)CCN(C)C3)c1Cl` [Example 102]: the pIC50 on PD-1/PD-L1 was 8.62. Moreover, the pIC50 in series [1] was 8.31. This compound also gave a pEC50 in series [2] of 7.12. For the same compound, the pIC50 against PD-L1 is 6.83. In addition, in series [3], the clearance is 19 mL/min/kg, the half-life is 1.9 h, the Vd is 1.96 L/kg and the highest level (Cmax) was 398 nM. For the same compound, in series [3], the AUC(0-inf) is 1.5 µM·h and the F was determined as 39%.
`Cc1c(NC(=O)c2nc3c(n2C)CCN(C)C3)cccc1-c1cccc(NC(=O)c2nc3c(n2C)CCN(CC24CCC(C(=O)O)(CC2)C4)C3)c1Cl` [Example 119, reference compound]: the pIC50 at PD-1/PD-L1 is 8.47; in series [1], 8.31; against PD-L1, 6.75. This compound also showed a pEC50 in series [2] of 7.09.
With `CCN1CCc2c(nc(C(=O)Nc3cccc(-c4cccc(NC(=O)c5nc6c(n5C)CCN(CC57CCC(C(=O)O)(CC5)C7)C6)c4Cl)c3Cl)n2C)C1` [Example 176, reference compound], the figures for the pIC50 (on PD-1/PD-L1; in series [1]; on PD-L1) were 8.54, 7.77 and 6.14, respectively. Further, the pEC50 in series [2] was 6.91.
For `CC(C)N1CCc2c(nc(C(=O)Nc3cccc(-c4cccc(NC(=O)c5nc6c(n5C)CCN(CC57CCC(C(=O)O)(CC5)C7)C6)c4Cl)c3Cl)n2C)C1` [Example 177, reference compound], the pIC50 on PD-1/PD-L1 is 8.82; in series [1], 8.24; on PD-L1, 6.73. The compound further showed a pEC50 in series [2] of 7.51.
As to `Cn1c(C(=O)Nc2cccc(-c3cccc(NC(=O)c4nc5c(n4C)CCN(C4CCC4)C5)c3Cl)c2Cl)nc2c1CCN(CC13CCC(C(=O)O)(CC1)C3)C2` [Example 178, reference compound], the figures for the pIC50 (at PD-1/PD-L1; in series [1]; against PD-L1) were 8.72, 7.89 and 6.23, respectively. The same compound gave a pEC50 in series [2] of 7.09.
As for `C[C@H](O)CN1CCc2c(nc(C(=O)Nc3cccc(-c4cccc(NC(=O)c5nc6c(n5C)CCN(CC57CCC(C(=O)O)(CC5)C7)C6)c4Cl)c3Cl)n2C)C1` [Example 181, reference compound], the figures for the pIC50 (on PD-1/PD-L1; in series [1]; against PD-L1) were 8.80, 8.21 and 6.79, respectively. The compound also had a pEC50 in series [2] of 7.39.
As for `C[C@@H](O)CN1CCc2c(nc(C(=O)Nc3cccc(-c4cccc(NC(=O)c5nc6c(n5C)CCN(CC57CCC(C(=O)O)(CC5)C7)C6)c4Cl)c3Cl)n2C)C1` [Example 182, reference compound], the pIC50 at PD-1/PD-L1 was 8.77; in series [1], 8.36; against PD-L1 it was 7.04. The pEC50 in series [2] is 7.52.
For the compound `Cn1c(C(=O)Nc2cccc(-c3cccc(NC(=O)c4nc5c(n4C)CCN(C4CCC(O)CC4)C5)c3Cl)c2Cl)nc2c1CCN(CC13CCC(C(=O)O)(CC1)C3)C2` (stereo not shown) [Example 183, reference compound], the pIC50 at PD-1/PD-L1 was 8.74; in series [1], 8.25; against PD-L1, 7.31. The compound also had a pEC50 in series [2] of 7.74.
